Where “and” joins values, the source holds several entries; their conditions need not be identical. Equal entries are not always repeated.

Assay [1] concerns Bacillus cereus ATCC 11778. Put plainly: agar disk diffusion test. Format: cell-based. As to conditions: B. cereus, 1.0 × 10^8 CFU.mL^−1; 20 μL compound diluted in DMSO (1:1) per 6 mm disc; streptomycin 10 µg; mean of two repetitions. An excerpt: (§1) To evaluate the antimicrobial potential of the synthesized compounds, the following reference strains of bacteria, that are economically important in foods, were employed: Gram-positive Listeria monocytogenes ATCC 7644, Staphylococcus aureus ATCC 25923, and Bacillus cereus ATCC 11778; Gram-negative Salmonella Typhimurium ATCC 14028, Escherichia coli O157: H7 NCTC 12900 and the clinically important Pseudomonas aeruginosa ATCC 15442.
(§2) The antimicrobial activity assay using the disk diffusion test was realized using the methodology that is recommended by the Clinical Laboratory Standards Institute (CLSI). The determination of the minimum inhibitory concentration (MIC) and minimum bactericidal concentration (MBC) was performed using the macro dilution tube method, in accordance with Rota et al., with modifications. Details of these assays are provided in the Supplemental Material. […]
(§3) 2.1. Antimicrobial activity assay using the disk diffusion test
(§4) The disk diffusion test followed the methodology recommended by the Clinical Laboratory Standards Institute CLSI [4]. The inoculum was standardized by standard McFarland to the concentration of 10^8 CFU.mL−1 and spread on the surface of a Petri dish containing Mueller‐Hinton (MH) agar. Then, the paper disc (6 mm) was put on a plate impregnated with 20 μL of the testing compound previously diluted in DMSO (1:1) and incubated at 37 °C for 24 hours. Zone of inhibition ≥20 mm were considered as strong inhibition, <20–12 mm as moderate inhibition, and <12 mm no inhibition. A positive control with streptomycin antibiotic (10 μg) and a negative one, with paper discs impregnated with distilled water, were used […]
(§5) 2.4. Radical Scavenging Activity […]
(§6) The ABTS radical scavenging activity was determined according to the method described by Erel. Different concentrations of compounds 5a–d and 10 (10–500 μ M) were mixed with the ABTS+ solution, and the decrease in the absorbance at 734 nm was recorded.

The subject of assay [2] is Escherichia coli O157: H7 NCTC 12900. Briefly: agar disk diffusion test. Format: cell-based. The note with it: E. coli O157:H7, 1.0 × 10^8 CFU.mL^−1; 20 μL compound diluted in DMSO (1:1) per 6 mm disc; streptomycin 10 µg; mean of two repetitions.
Excerpt: as §1, §2, §3, §4, §5, §6
In general terms: In agar diffusion tests the substance spreads into inoculated agar from a disc or well.

Assay [3] relates to Listeria monocytogenes ATCC 7644. Briefly: agar disk diffusion test. The format is cell-based. The note with it: L. monocytogenes, 1.0 × 10^8 CFU.mL^−1; 20 μL compound diluted in DMSO (1:1) per 6 mm disc; streptomycin 10 µg; mean of two repetitions.
Excerpt: as §1, §2, §3, §4, §5, §6

The subject of assay [4] is Pseudomonas aeruginosa ATCC 15442. Put plainly: agar disk diffusion test. Format: cell-based. As to conditions: P. aeruginosa, 1.0 × 10^8 CFU.mL^−1; 20 μL compound diluted in DMSO (1:1) per 6 mm disc; streptomycin 10 µg; mean of two repetitions.
Excerpt: as §1, §2, §3, §4, §5, §6

Assay [5] has as its system Salmonella Typhimurium ATCC 14028. Put plainly: agar disk diffusion test. Format: cell-based. The note with it: S. Typhimurium, 1.0 × 10^8 CFU.mL^−1; 20 μL compound diluted in DMSO (1:1) per 6 mm disc; streptomycin 10 µg; mean of two repetitions.
Excerpt: as §1, §2, §3, §4, §5, §6

For assay [6], the system named is Staphylococcus aureus ATCC 25923. Put plainly: agar disk diffusion test. The format is cell-based. The note with it: S. aureus, 1.0 × 10^8 CFU.mL^−1; 20 μL compound diluted in DMSO (1:1) per 6 mm disc; streptomycin 10 µg; mean of two repetitions.
Excerpt: as §1, §2, §3, §4, §5, §6

The nature of assay [7]: DPPH radical scavenging. The note with it: for DPPH radical scavenging, percentage of inhibition in relation to control: mean ± SD (n = 3); for DPPH radical scavenging activity (in words): 10–500 μM tested. The protocol:
The antioxidant properties of the synthesized compounds (5a–d and 10) were evaluated by three different methods in vitro: DPPH (1,1-diphenyl-2-picryl-hydrazyl) and ABTS^+ (2,2′-azino-bis(3-ethylbenzthiazoline-6-sulfonic acid) radical scavenging ability and ferric ion reducing antioxidant power (FRAP). All drugs were dissolved in dimethyl sulfoxide (DMSO) at concentrations of 1–500 µM. These assays were performed according to the literature and details of these experiments are described elsewhere (see the ‘Results and Discussion’ section for the references). […]
2.3. Antioxidant activity assays
The antioxidant properties of the synthesized compounds were evaluated by three different methods in vitro: DPPH and ABTS+ radical scavenging activity and ferric ion reducing antioxidant power (FRAP). All drugs were dissolved in dimethyl sulfoxide (DMSO). The experimental results were given as the means ± standard deviation (SD) to show the variations among the groups. The statistical analysis was performed using one‐way analysis of variance (ANOVA) followed by Newman‐Keuls multiple comparison test when appropriate. The differences were considered statistically significant at a probability of less than 5% (p < 0.05). All tests were performed at least three times in duplicate. The IC50 values (the concentration of sample required to scavenge 50% of the free radicals) were calculated from the graph of the scavenging effect percentage versus the […]
2.4. Radical Scavenging Activity
To determine if compounds 5a–d and 10 present in vitro antioxidant activity against free radicals, DPPH and ABTS+ scavenging capability were evaluated at different concentrations.
The DPPH scavenging activity of compounds 5a–d and 10 (10–500 μM) was determined in accordance with the method of Sharma and Bhat and the decrease in the absorbance at 517 nm […]
The ABTS radical scavenging activity was determined according to the method described by Erel. Different concentrations of compounds 5a–d and 10 (10–500 μ M) were mixed with the ABTS+ solution, and the decrease in the absorbance at 734 nm was recorded. […]
(§7) values, as calculated by the following equation:
I% = [(Ac−As/Ac) × 100] (1) […]
On the technique in general: The DPPH test is a chemical assay of radical scavenging.

Assay [8] is described as follows: Ferric ion reducing antioxidant power (FRAP). The note with it: mean ± SD (n = 3). As for the experimental part:
The antioxidant properties of the synthesized compounds (5a–d and 10) were evaluated by three different methods in vitro: DPPH (1,1-diphenyl-2-picryl-hydrazyl) and ABTS^+ (2,2′-azino-bis(3-ethylbenzthiazoline-6-sulfonic acid) radical scavenging ability and ferric ion reducing antioxidant power (FRAP). All drugs were dissolved in dimethyl sulfoxide (DMSO) at concentrations of 1–500 µM. These assays were performed according to the literature and details of these experiments are described elsewhere (see the ‘Results and Discussion’ section for the references).
as §7
I% = [(Ac−As/Ac) × 100] (1)
3. Ferric ion reducing antioxidant power (FRAP)
reducing capacity of compounds 5a–d and 10.
[8] with slight modifications. […]

Turning to `CC(C)=CCCC(C)C(/C=[N+](\C)[O-])Sc1ccccc1` (stereo not shown) [5a, (E)-N,3,7-Trimethyl-2-(phenylthio)oct-6-en-1-imine oxide], the “Inhibition Zone” value was determined as 21.5 mm in assay [1]; 11 mm in assay [2]; 18 mm in assay [3]; 8.5 mm in assay [4]; 8.5 mm in assay [5]; 15 mm in assay [6]. The “DPPH radical scavenging, percentage of inhibition in relation to control” value in assay [7] (100 μM) is reported as 2.43 ± 1.08%; in assay [7] (500 μM), 20.31 ± 1.26 %. In addition, the “DPPH radical scavenging activity (in words)” value in assay [7] was “demonstrated DPPH radical scavenging activity”. The “Ferric ion reducing antioxidant power (FRAP), absorbance at 593 nm” value (shortened to “Ferric ion reducing antioxidant power”) turned out to be 0.165 ± 0.007 in assay [8] (5 μM), 0.207 ± 0.019 in assay [8] (10 μM), 0.572 ± 0.023 in assay [8] (50 μM) and 1.039 ± 0.067 in assay [8] (100 μM).

Consider `CC(C)=CCCC(C)(C/C=[N+](\C)[O-])Sc1ccccc1` (stereo not shown) [5c, (E)-N,3,7-trimethyl-3-(phenylthio)oct-6-en-1-imine oxide], for which the “Inhibition Zone” value was 24.5 mm in assay [1]; 21.5 mm in assay [2]; 26.0 mm and 26 mm in assay [3]; 24 mm in assay [4]; 24 mm in assay [6]. For the same compound, the “DPPH radical scavenging, percentage of inhibition in relation to control” value stood at 2.43 ± 0.61% in assay [7] (100 μM) and 29.34 ± 1.00 % in assay [7] (500 μM). Moreover, the “DPPH radical scavenging activity (in words)” value in assay [7] is “demonstrated DPPH radical scavenging activity”. Besides, the “Ferric ion reducing antioxidant power” value in assay [8] (10 μM) came out at 0.153 ± 0.047; in assay [8] (50 μM) it was 0.543 ± 0.047; in assay [8] (100 μM) it was 1.121 ± 0.160.

On to `CC(C)=CCCC(C)C/C=[N+](\C)[O-]` (stereo not shown) [5d, (E)-N,3,7-trimethyloct-6-en-1-imine oxide], for which the “Inhibition Zone” value is 29 mm in assay [1]; 22.5 mm in assay [2]; 31.0 mm and 31 mm in assay [3]; 23 mm in assay [4]; 23 mm in assay [5]; 24.5 mm in assay [6]. Besides, the “DPPH radical scavenging activity (in words)” value in assay [7] is “did not present effect”. Further, the “Ferric ion reducing antioxidant power” value in assay [8] (1 μM) came to 0.166 ± 0.008; in assay [8] (5 μM), 0.280 ± 0.022; in assay [8] (10 μM), 0.412 ± 0.055; in assay [8] (50 μM) it was 1.198 ± 0.024.

On to `CC(C)=CCC[C@@H](C)C(/C=N/O)[Se]c1ccccc1` (stereo partly drawn) [compound 10, (3R,E)-3,7-dimethyl-2-(phenylselanyl)oct-6-enal oxime], for which the “Inhibition Zone” value is listed as 19 mm in assay [1]; 9 mm in assay [2]; 21 mm in assay [3]; 9 mm in assay [4]; 10.5 mm in assay [5]; 22 mm in assay [6]. The “DPPH radical scavenging activity (in words)” value in assay [7] is recorded as “did not present effect”. For the same compound, the “Ferric ion reducing antioxidant power” value was found to be 0.084 ± 0.010 in assay [8] (10 μM), 0.180 ± 0.008 in assay [8] (50 μM), 0.257 ± 0.007 in assay [8] (100 μM) and 1.291 ± 0.045 in assay [8] (500 μM).
